From patent US20230092005A1, “COMPOSITIONS AND METHODS FOR TREATING CANCER AND TUMOR” (OBLATO, INC., priority 2020, published 2023)
“And” between values parts separate entries of the source, which are not always exact repeats. Identical values can stand only once.

Key:
[1] = tested on: human A549 lung cancer xenografts; assay: Anti-cancer efficacy in nude mice carrying human A549 lung cancer xenografts (tumor volume, tumor weight, growth inhibition rate); type: in vivo, BALB/c Nude mouse; conditions: for Tumor weights (mean): tumors weighed at day 29; for Tumor growth inhibition rate (IR): IR=(1-T/C)x100 from mean tumor weights, day 29
Method: The anti-cancer efficacy of OKN-007 was assessed after oral administration in nude mice carrying human A549 lung cancer xenografts implanted subcutaneously in the flank. Human lung cancer cell line, A549 was used. […] The frozen cells were thawed in a water bath. Cells were placed in a tube containing the medium and centrifuged (1,000 rpm, 5 minutes) to discard the supernatant. After re-suspending with the culture medium, cells were placed in a cell culture flask and incubated in a 5% CO2 incubator at 37° C. Cells were sub-cultured at a ratio of 1:5 when grown with confluency of 70-80% in the culture container. Cells cultured on the day of cell line transplantation were centrifuged (1,000 rpm, 5 minutes) to discard the supernatant and to make cell suspension with D-PB S. Then, the cell suspension was mixed with Matrigel at a ratio of 1:1 (5×10^7 cells/mL). BALB/c Nude mouse, [NT]-Foxnlnu/CrlOri, SPF was used. Sex, number, age, and body weight range of animals at receipt: The mice (65 mice) were male, 5 weeks old, and had about 14.5-19.6 g weight at the receipt. Cell transplantation: After the quarantine-acclimation period, the body weight measurement and cell transplantation in healthy animals were performed. […] Prepared cell (1×10^7 cells/0.2 mL) suspension was injected subcutaneously into the right flank with disposable syringes. […] Group assignment: After transplanting cells, each tumor size was monitored for 65 animals. When tumor volume reached within 87-112 mm^3, 50 animals were assigned to the respective groups with an average tumor volume of about 99 mm^3. Based on the tumor volume, animals were selected and randomly distributed into 5 groups (10 animals/group). Dosing Route: Oral administration. The route of administration was oral because the clinical application of the test substance is oral. Method and frequency of administration: For negative control and test substance, oral administration was performed once a day for 4 weeks for a total of 28 times using a disposable syringe. For positive control, intraperitoneal administration was performed once a week for 4 weeks for a total of 4 times using a disposable syringe. Dosing Route: The dose levels of the test substance were selected at 150, 300, and 600 mg/kg. The dose level of the positive substance was selected at 2 mg/kg. The dose volume was selected at 10 mL/kg for all groups, and the individual dose was calculated based on the bodyweight of animals just prior to dosing. Measurement of tumor volume: The largest diameter (a) and the smallest diameter (b) of each tumor were measured using calipers twice a week during the observation period. The tumor volume (TV) was calculated twice a week according to the following formula: TV (mm^3)=(a (mm)×b^2 (mm^2))/2. The volume of a tumor before administration to each animal was set to the value measured at the time of group assignment. Tumor removal and measurement of body weight: After the observation period, animals were anesthetized by inhalation of isoflurane. After the tumor was extracted, the weight of the removed tumor was recorded. The tumor growth inhibition rate (IR) was calculated using the following formula: IR (%)=(1-T/C)×100, where T is a mean tumor weight in the test substance group, and positive substance group, and C is a mean tumor weight in the negative control group.

[2] = tested on: human A549 lung cancer xenografts; assay: TUNEL staining of extracted A549 xenograft tumors (apoptosis counting and grading); type: in vivo, BALB/c Nude mouse; conditions: for Apoptosis grade + : number of animals / Apoptosis grade ++ (moderate): number of animals / Apoptosis grade +++ (marked): number of animals / Apoptosis grade ++++ (severe): number of animals / Apoptosis grade ± (minimal): number of animals: N=10; for Apoptosis counting No. (group mean ± S.D.): TUNEL positive cells per 1 mm^2
From the text: Histopathological test: The extracted tumors were fixed in 10% neutral buffered formalin solution (10% neutral buffered formalin). After sectioning the tumors to a certain thickness (about 3 mm), those were subjected to the general preparation procedure, embedded in paraffin, cut into 4 to 5 μm size, and tissue sections were stained with Hematoxylin and Eosin (H&E) and TUNEL. IHC (Immunohistochemistry) slides, cut into 4 to 5 μm size, were produced and sent to the sponsor (Negative Control Group (G1), Test substance 2 (G3, Animal ID Nos.: 1301, 1302, 1303, 1307, 1310), Test substance 3 (G4, Animal ID Nos.: 1401, 1402, 1404, 1408, 1409)). Determination of TUNEL staining results: After histological examination of the entire cross-section of the tumor for grading (±, +, ++, +++, ++++) of apoptosis, the nucleated brown stained cells were read as […] was counted. The apoptosis of the tumor was determined by the number of positive cells per […] (1 mm^2). The apoptosis of the tumor was determined by calculating the average number of positive cells and graded into the corresponding severity. The number of positive cells in which apoptosis occurred was determined by counting the number of positive cells per unit area (1 mm^2). Histopathological test (Table 7, FIGS. 7-11): The extracted fixed tumor was cut to a certain thickness (about 3 mm), then subjected to general tissue treatment, paraffin-embedded to produce blocks, and tissue sections of 4 to 5 μm in size were prepared. Then, Hematoxylin & Eosin (H&E) staining and TUNEL staining were performed.

CC(C)(C)/[N+]([O-])=C/c1ccc(S(=O)(=O)O)cc1S(=O)(=O)O [OKN-007, Disodium 4-[(Z)-[tert-butyl(oxido)azaniumylidene]methyl]benzene-1,3-disulfonate]
Tumor weights (mean) ([1]; G2, 150 mg/kg P.O. once a day for 4 weeks): 0.47 g
Tumor volume (mean) ([1]; G2, 150 mg/kg P.O. once a day, day 1 (before administration)): 99 mm^3
Tumor volume (mean) ([1]; G2, 150 mg/kg P.O. once a day, day 5 after administration): 152 mm^3
Tumor volume (mean) ([1]; G2, 150 mg/kg P.O. once a day, day 8 after administration): 200 mm^3
Tumor volume (mean) ([1]; G2, 150 mg/kg P.O. once a day, day 12 after administration): 240 mm^3
Tumor volume (mean) ([1]; G2, 150 mg/kg P.O. once a day, day 15 after administration): 243 mm^3
Tumor volume (mean) ([1]; G2, 150 mg/kg P.O. once a day, day 19 after administration): 306 mm^3
Tumor volume (mean) ([1]; G2, 150 mg/kg P.O. once a day, day 22 after administration): 376 mm^3
Tumor volume (mean) ([1]; G2, 150 mg/kg P.O. once a day, day 26 after administration): 466 mm^3
Tumor volume (mean) ([1]; G2, 150 mg/kg P.O. once a day, day 29 after administration): 603 mm^3
Tumor growth inhibition rate (IR) ([1]; G2, 150 mg/kg P.O.): 48.9%
Tumor weights (mean) ([1]; G3, 300 mg/kg P.O. once a day for 4 weeks): 0.43 g
Tumor volume (mean) ([1]; G3, 300 mg/kg P.O. once a day, day 1 (before administration)): 99 mm^3
Tumor volume (mean) ([1]; G3, 300 mg/kg P.O. once a day, day 5 after administration): 146 mm^3
Tumor volume (mean) ([1]; G3, 300 mg/kg P.O. once a day, day 8 after administration): 172 mm^3
Tumor volume (mean) ([1]; G3, 300 mg/kg P.O. once a day, day 12 after administration): 182 mm^3
Tumor volume (mean) ([1]; G3, 300 mg/kg P.O. once a day, day 15 after administration): 212 mm^3
Tumor volume (mean) ([1]; G3, 300 mg/kg P.O. once a day, day 19 after administration): 254 mm^3
Tumor volume (mean) ([1]; G3, 300 mg/kg P.O. once a day, day 22 after administration): 310 mm^3
Tumor volume (mean) ([1]; G3, 300 mg/kg P.O. once a day, day 26 after administration): 390 mm^3
Tumor volume (mean) ([1]; G3, 300 mg/kg P.O. once a day, day 29 after administration): 460 mm^3
Tumor growth inhibition rate (IR) ([1]; G3, 300 mg/kg P.O.): 53.3%
Tumor growth inhibition rate (IR) ([1]; G3, 300 mg/kg P.O., listed as test substance): 53.5%
Tumor weights (mean) ([1]; G4, 600 mg/kg P.O. once a day for 4 weeks): 0.38 g
Tumor volume (mean) ([1]; G4, 600 mg/kg P.O. once a day, day 1 (before administration)): 99 mm^3
Tumor volume (mean) ([1]; G4, 600 mg/kg P.O. once a day, day 5 after administration): 149 mm^3
Tumor volume (mean) ([1]; G4, 600 mg/kg P.O. once a day, day 8 after administration): 176 mm^3
Tumor volume (mean) ([1]; G4, 600 mg/kg P.O. once a day, day 12 after administration): 179 mm^3
Tumor volume (mean) ([1]; G4, 600 mg/kg P.O. once a day, day 15 after administration): 209 mm^3
Tumor volume (mean) ([1]; G4, 600 mg/kg P.O. once a day, day 19 after administration): 249 mm^3
Tumor volume (mean) ([1]; G4, 600 mg/kg P.O. once a day, day 22 after administration): 288 mm^3
Tumor volume (mean) ([1]; G4, 600 mg/kg P.O. once a day, day 26 after administration): 331 mm^3
Tumor volume (mean) ([1]; G4, 600 mg/kg P.O. once a day, day 29 after administration): 407 mm^3
Tumor growth inhibition rate (IR) ([1]; G4, 600 mg/kg P.O.): 58.7%
Apoptosis grade + : number of animals ([2]; G2, 150 mg/kg P.O.): 1
Apoptosis grade ++ (moderate): number of animals ([2]; G2, 150 mg/kg P.O.): 0
Apoptosis grade +++ (marked): number of animals ([2]; G2, 150 mg/kg P.O.): 0
Apoptosis grade ++++ (severe): number of animals ([2]; G2, 150 mg/kg P.O.): 0
Apoptosis grade ± (minimal): number of animals ([2]; G2, 150 mg/kg P.O.): 9
Apoptosis counting No. (group mean ± S.D.) ([2]; G2, 150 mg/kg P.O.): 79.6±29.8 No./mm^2 and 79.6 ± 20.8 No./mm^2
Apoptosis grade + : number of animals ([2]; G3, 300 mg/kg P.O.): 2
Apoptosis grade ++ (moderate): number of animals ([2]; G3, 300 mg/kg P.O.): 0
Apoptosis grade +++ (marked): number of animals ([2]; G3, 300 mg/kg P.O.): 0
Apoptosis grade ++++ (severe): number of animals ([2]; G3, 300 mg/kg P.O.): 0
Apoptosis grade ± (minimal): number of animals ([2]; G3, 300 mg/kg P.O.): 8
Apoptosis counting No. (group mean ± S.D.) ([2]; G3, 300 mg/kg P.O.): 91.5±32.2 No./mm^2
Apoptosis grade + : number of animals ([2]; G4, 600 mg/kg P.O.): 5
Apoptosis grade ++ (moderate): number of animals ([2]; G4, 600 mg/kg P.O.): 2
Apoptosis grade +++ (marked): number of animals ([2]; G4, 600 mg/kg P.O.): 0
Apoptosis grade ++++ (severe): number of animals ([2]; G4, 600 mg/kg P.O.): 0
Apoptosis grade ± (minimal): number of animals ([2]; G4, 600 mg/kg P.O.): 3
Apoptosis counting No. (group mean ± S.D.) ([2]; G4, 600 mg/kg P.O.): 149.9±59.5 No./mm^2
